PMC7191050 (Molecules and Cells, 2020)

Key:
Assay type in all cases: binding
[1] = target: T1, Ca IleRS (isoleucyl-tRNA synthetase) (Candida albicans, UniProt Q59RI1); test: X-ray crystal structure at […] Å
T1 sequence (Q59RI1 1-856): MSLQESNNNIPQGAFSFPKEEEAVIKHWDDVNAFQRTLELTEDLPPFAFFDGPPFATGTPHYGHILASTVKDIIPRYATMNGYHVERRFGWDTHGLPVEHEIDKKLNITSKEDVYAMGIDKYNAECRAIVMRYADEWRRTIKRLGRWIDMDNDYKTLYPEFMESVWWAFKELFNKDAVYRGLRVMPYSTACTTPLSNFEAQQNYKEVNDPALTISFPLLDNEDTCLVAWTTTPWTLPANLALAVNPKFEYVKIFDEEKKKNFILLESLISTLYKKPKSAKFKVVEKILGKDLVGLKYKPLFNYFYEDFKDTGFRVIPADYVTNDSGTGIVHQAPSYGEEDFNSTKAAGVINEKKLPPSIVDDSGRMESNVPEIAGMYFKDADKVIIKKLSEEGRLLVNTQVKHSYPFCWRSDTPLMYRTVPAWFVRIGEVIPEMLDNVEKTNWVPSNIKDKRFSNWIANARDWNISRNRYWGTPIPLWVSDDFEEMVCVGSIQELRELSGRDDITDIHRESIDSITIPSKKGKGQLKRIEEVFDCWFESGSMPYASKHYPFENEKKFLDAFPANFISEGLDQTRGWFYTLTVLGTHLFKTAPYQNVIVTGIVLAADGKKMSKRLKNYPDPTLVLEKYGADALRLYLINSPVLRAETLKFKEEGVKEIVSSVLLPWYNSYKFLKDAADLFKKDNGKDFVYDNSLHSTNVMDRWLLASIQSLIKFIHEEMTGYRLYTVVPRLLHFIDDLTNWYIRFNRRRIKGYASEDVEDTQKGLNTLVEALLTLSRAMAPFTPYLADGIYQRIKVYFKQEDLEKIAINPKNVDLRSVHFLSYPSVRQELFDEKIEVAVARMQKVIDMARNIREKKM

[2] = target: T2, Ca IleRS (isoleucyl-tRNA synthetase) (Candida albicans, UniProt Q59RI1); test: microscale thermophoresis
T2 sequence (Q59RI1 1-1088): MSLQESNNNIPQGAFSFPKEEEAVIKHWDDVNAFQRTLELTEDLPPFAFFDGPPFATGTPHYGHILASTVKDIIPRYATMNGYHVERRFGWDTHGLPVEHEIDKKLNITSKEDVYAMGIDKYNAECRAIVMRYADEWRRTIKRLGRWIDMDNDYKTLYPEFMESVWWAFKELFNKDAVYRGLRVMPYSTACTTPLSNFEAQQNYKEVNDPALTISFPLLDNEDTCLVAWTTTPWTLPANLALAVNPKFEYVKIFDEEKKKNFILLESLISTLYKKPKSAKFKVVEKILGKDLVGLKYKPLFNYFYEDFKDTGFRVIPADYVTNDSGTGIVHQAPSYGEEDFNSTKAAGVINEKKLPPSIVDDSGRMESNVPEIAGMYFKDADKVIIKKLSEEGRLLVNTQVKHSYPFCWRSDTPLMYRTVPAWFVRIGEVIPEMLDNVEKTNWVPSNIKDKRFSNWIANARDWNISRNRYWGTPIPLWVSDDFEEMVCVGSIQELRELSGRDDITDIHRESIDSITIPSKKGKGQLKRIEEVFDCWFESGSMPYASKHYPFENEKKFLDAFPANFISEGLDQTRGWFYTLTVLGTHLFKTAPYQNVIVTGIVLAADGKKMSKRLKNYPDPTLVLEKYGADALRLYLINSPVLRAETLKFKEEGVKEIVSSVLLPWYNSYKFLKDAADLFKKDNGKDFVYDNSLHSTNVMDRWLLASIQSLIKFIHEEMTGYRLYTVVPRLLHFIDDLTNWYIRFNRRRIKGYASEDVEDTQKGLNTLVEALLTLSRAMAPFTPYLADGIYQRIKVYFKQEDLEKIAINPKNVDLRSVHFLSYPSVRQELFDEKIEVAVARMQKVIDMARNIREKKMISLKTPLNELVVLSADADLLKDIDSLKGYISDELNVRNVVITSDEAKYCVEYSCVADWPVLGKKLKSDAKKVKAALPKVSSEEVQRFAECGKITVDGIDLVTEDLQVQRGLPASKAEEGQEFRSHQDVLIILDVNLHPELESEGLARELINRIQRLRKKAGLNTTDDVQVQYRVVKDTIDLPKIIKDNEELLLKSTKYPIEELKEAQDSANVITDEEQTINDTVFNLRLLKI

[3] = target: T3, Ca IleRS mutant (isoleucyl-tRNA synthetase) (Candida albicans, UniProt Q59RI1, I601F/T599H); test: microscale thermophoresis
T3 sequence (Q59RI1 1-1088 T599H/I601F): T2 sequence (Q59RI1 1-1088)

SMILES	X-ray crystal structure at 2.9 Å (ligand co-purified, none added) [1]	Kd [2]	Kd [3]
CC[C@H](C)[C@H](N)C(=O)OP(=O)(O)OC[C@H]1O[C@@H](n2cnc3c(N)ncnc32)[C@H](O)[C@@H]1O [Ile-AMP]	The crystal structure of Ca IleRS revealed clear electron density for Ile-AMP at the synthetic active site	–	–
C/C(=C\C(=O)OCCCCCCCCC(=O)O)C[C@@H]1OC[C@H](C[C@@H]2O[C@H]2[C@@H](C)[C@H](C)O)[C@@H](O)[C@H]1O [mupirocin]	–	103 to 111 µM	103 to 111 µM
